# Values of other authors, collected in patent US20210189389A1, “METHODS OF MODULATING ANK1” (SOCIETE DES PRODUITS NESTLE S.A., priority 2017, published 2021).
# System: ANK1
# Conditions: effect on ANK1 expression, from Comparative Toxicogenomics Database and cited reference
row,Compound,Interaction Actions
1,Gentamicins,decreases expression
2,O=C1[O][Pt]2([NH][C@@H]3CCCC[C@H]3[NH]2)[O]C1=O [oxaliplatin],decreases expression
3,ClC1=C(Cl)[C@]2(Cl)[C@@H]3[C@@H]4C[C@@H]([C@H]5O[C@@H]45)[C@@H]3[C@@]1(Cl)C2(Cl)Cl [Dieldrin],decreases expression
4,NC(=O)N1c2ccccc2C=Cc2ccccc21 [Carbamazepine],affects expression
5,CCCc1cc(=O)[nH]c(=S)[nH]1 [Propylthiouracil],decreases expression
6,CN(C)CCCN1c2ccccc2Sc2ccc(Cl)cc21 [Chlorpromazine],affects expression
7,CC(=N)S [Thioacetamide],affects expression
8,Brc1c(Br)c(Br)c(Oc2c(Br)c(Br)c(Br)c(Br)c2Br)c(Br)c1Br [decabromobiphenyl ether],decreases expression
9,CCCCc1oc2ccccc2c1C(=O)c1cc(I)c(OCCN(CC)CC)c(I)c1 [Amiodarone],affects expression
10,c1ccc2c(c1)cc1ccc3cccc4ccc2c1c34 [Benzo(a)pyrene],decreases expression
11,CCCC(CCC)C(=O)O [Valproic Acid],affects expression
12,CC(=O)Nc1ccc(O)cc1 [Acetaminophen],affects expression
13,CC[C@@]1(O)C(=O)OCc2c1cc1n(c2=O)Cc2cc3c(CN(C)C)c(O)ccc3nc2-1 [Topotecan],decreases expression
14,CC/C(=C(\c1ccccc1)c1ccc(OCCN(C)C)cc1)c1ccccc1 [Tamoxifen],affects expression
